Marks after values point to notes of the source that are not given here.
How the values were obtained:
[1] = system: rat primary hippocampal neurons injured with Aβ 1-42; assay: Survival and neurite network of MAP-2 neurons in primary hippocampal neurons injured with Aβ1-42; type: cell-based; settings: for MAP-2 neurite network (% of control) / MAP-2 neurons (% of control) / Neurite network/MAP-2 neurons (% of control): Aβ 1-42 (20 μM) 24 h; for MAP-2 neurons (% of control): 1 h preincubation; for Neurite network/MAP-2 neurons (% of control): neurite network normalized by number of neurons
Description: Rat hippocampal neurons were cultured as described by Callizot et al. (2013) J. Neurosci. Res. 91706-716. Pregnant female rats of 17 days gestation (Rats Wistar; Janvier Labs France) were killed using a deep anesthesia with CO2 chamber followed by a cervical dislocation. Then, fetuses were removed from the uterus and immediately placed in ice-cold L15 Leibovitz medium with a 2% penicillin (10,000 U/ml) and streptomycin (10 mg/ml) solution (PS) and 1% bovine serum albumin (BSA). Hippocampal neurons were treated for 20 min at 37° C. with a trypsin-EDTA solution at a final concentration of 0.05% trypsin and 0.02% EDTA. The dissociation was stopped by adding Dulbecco's modified Eagle's medium (DMEM) with 4.5 g/l of glucose, containing DNAse I grade II (final concentration 0.5 mg/ml) and 10% fetal calf serum (FCS). Cells were mechanically dissociated by three forced passages through the tip of a 10-ml pipette and then centrifuged at 515×g for 10 min at 4° C. The supernatant was discarded, and the pellet was resuspended in a defined culture medium consisting of Neurobasal medium with a 2% solution of B27 supplement, 2 mmol/l of L-glutamine, 2% of PS solution, and 10 ng/ml of brain-derived neurotrophic factor (BDNF). Viable cells were counted in a Neubauer cytometer, using the trypan blue exclusion test. Cells were seeded at a density of 20,000 per well in 96-well plates precoated with poly-L-lysine and cultured at 37° C. in an air (95%)-CO2 (5%) incubator. The medium was changed every 2 days.
(§1) The hippocampal neurons were exposed with Aβ solutions (see below) after 17 days of culture. The Aβ1-42 preparation was done following the procedure described by Callizot et al. (2013) J. Neurosci. Res. 91706-716. Briefly, Aβ1-42 peptide was dissolved in the defined culture medium mentioned above, at an initial concentration of 40 μM. This solution was gently agitated for 3 days at 37° C. in the dark and immediately used after being properly diluted in culture medium to the concentrations used (20 μM (plate 1) or 2.5 μM (plate 2) corresponding to 2 μM or 0.25 μM of oligomers (AβO) respectively).
(§2) Donecopride fumarate was solved in culture medium and preincubated 1 h before Aβ application. Aβ1-42 preparation was added to a final concentration of 20 or 2.5 μM (=2 μM or 0.25 μM of AβO, evaluated by automatic Western Blot) diluted in control medium in presence of Donecopride.
Donecopride fumarate (Donecopride) was tested on one culture in a 96 well plate (6 wells per conditions). The compound was preincubated one hour before Aβ application. The following conditions were assessed:
(§3) 24 hours after intoxication, the hippocampal neurons were fixed by a cold solution of ethanol (95%) and acetic acid (5%) for 5 min at −20° C. After permeabilization with 0.1% of saponin, cells were incubated for 2 h with:
a) chicken polyclonal antibody anti microtubule-associated-protein 2 (MAP-2), diluted at 1/1000 in PBS containing 1% fetal calf serum and 0.1% of saponin (this antibody allows the specific staining of neuronal cell bodies and neurites; and allow the study of neuronal cell death and neurite network).
(§4) For each condition, 30 pictures (representative of the whole well area) per well were taken using ImageXpress (Molecular Devices) at 20× magnification. All images were taken with the same acquisition parameters. Analyses were performed automatically by using Custom Module Editor (Molecular Devices).
(§5) The following endpoints were assessed: • Total number of neurons (neuron survival, number of MAP-2 positive neurons) • Neurite network (in μm of MAP-2 positive neurons) • area of tau in neurons (μm^2, overlapping with MAP-2 positive neurons).
All values are expressed as mean+/−SEM. Statistical analysis was performed by one-way ANOVA, followed by PLSD Fisher's test, p<0.05 were considered significant.
Rat hippocampal neurons were cultured as described by Callizot et al. (2013) J. Neurosci. Res. 91:706-716. […]

Tau (AT100) = assay: Phosphorylation of Tau (AT100) in MAP-2 hippocampal neurons injured with Aβ1-42; type: cell-based, rat; settings: for Area of Tau (AT100)/neurons (% of control): Aβ 1-42 (20 μM) 24 h; for concentration of maximal effect on Tau hyperphosphorylation: Aβ1-42 injured hippocampal neurons
Description: as §1, §2, §3
b) mouse monoclonal antibody anti-phospho Tau (AT100) at dilution of 1/400 in PBS containing 1% fetal calf serum and 0.1% of saponin.
as §4, §5
Injury: The hippocampal neurons were exposed with Aβ solutions (see below) after 17 days of culture. The Aβ1-42 preparation was done following the procedure described by Callizot et al. (2013) J. Neurosci. Res. 91:706-716. The batch number of the Aβ1-42 used in this study contains 10% of oligomers (quantification by WB as performed in Combes et al. (2015) J. Neurosci. Res. 93:633-643). Briefly, Aβ1-42 peptide was dissolved in the defined culture medium mentioned above, at an initial concentration of 40 μmol/1. This solution was gently agitated for 3 days at 37° C. in the dark and immediately used after being properly diluted in culture medium to the concentrations used (20 μmol/l or 2.5 μmol/l corresponding to 2 μmol/l or 0.25 μmol/l of oligomers (AβO) respectively). Aβ1-42 preparation was added to a final concentration of 20 or 2.5 μmol/l (respectively 2 μmol/l or 0.25 μmol/l of AβO, determined by automatic WB) diluted in control medium in presence of the compounds.
Immunostaining: MAP-2/AT100—After fixation and permeabilization, cells were incubated for 2 hours with: • a chicken polyclonal antibody anti microtubule-associated-protein 2 (MAP-2) at dilution of 1/1000 in PBS containing 1% fetal calf serum and 0.1% saponin (this antibody stains specifically cell bodies and neurites, allowing study of neuronal cell death and neurite network); and • a mouse monoclonal antibody anti-phospho Tau (AT100) at dilution of 1/100 in PBS containing 1% fetal calf serum and 0.1% saponin.
For each condition, 30 pictures (representative of the whole well area) per well were taken using ImageXpress® (Molecular Devices) with 20× magnification. All images were generated using the same acquisition parameters. From images, analyses were directly and automatically performed by Custom Module Editor® (Molecular Devices). The following read-outs were investigated: • Total number of neurons (neuron survival, number of MAP-2 positive neurons) • Neurite network (in μm of MAP-2 positive neurons) • Area of AT100 (μm^2, overlapping with MAP-2 positive neurons).

[2] = Aβ1-42 injured hippocampal neurons, Example 4

COc1cc(N)c(Cl)cc1C(=O)CCC1CCN(CC2CCCCC2)CC1 [Donecopride]
MAP-2 neurite network (% of control) ([1]; 1 nM): 64 % of control
MAP-2 neurons (% of control) ([1]; 1 nM): 70 % of control
Neurite network/MAP-2 neurons (% of control) ([1]; 1 nM): 90 % of control
MAP-2 neurite network (% of control) ([1]; 5 nM): 69 % of control
MAP-2 neurons (% of control) ([1]; 5 nM): 69 % of control
Neurite network/MAP-2 neurons (% of control) ([1]; 5 nM): 99 % of control
MAP-2 neurite network (% of control) ([1]; 10 nM): 68 % of control
MAP-2 neurons (% of control) ([1]; 10 nM): 73 % of control
Neurite network/MAP-2 neurons (% of control) ([1]; 10 nM): 96 % of control
MAP-2 neurite network (% of control) ([1]; 50 nM): 71* % of control
MAP-2 neurons (% of control) ([1]; 50 nM): 74 % of control
Neurite network/MAP-2 neurons (% of control) ([1]; 50 nM): 91 % of control
MAP-2 neurite network (% of control) ([1]; 100 nM): 73* % of control
MAP-2 neurons (% of control) ([1]; 100 nM): 78* % of control
Neurite network/MAP-2 neurons (% of control) ([1]; 100 nM): 93 % of control
MAP-2 neurite network (% of control) ([1]; 500 nM): 79* % of control
MAP-2 neurons (% of control) ([1]; 500 nM): 79* % of control
Neurite network/MAP-2 neurons (% of control) ([1]; 500 nM): 100 % of control
MAP-2 neurite network (% of control) ([1]; 1 μM): 76* % of control
MAP-2 neurons (% of control) ([1]; 1 μM): 62* % of control
Neurite network/MAP-2 neurons (% of control) ([1]; 1 μM): 124* % of control
Area of Tau (AT100)/neurons (% of control) (Tau (AT100); 1 nM): 204 % of control
Area of Tau (AT100)/neurons (% of control) (Tau (AT100); 5 nM): 201 % of control
Area of Tau (AT100)/neurons (% of control) (Tau (AT100); 10 nM): 175 % of control
Area of Tau (AT100)/neurons (% of control) (Tau (AT100); 50 nM): 161* % of control
Area of Tau (AT100)/neurons (% of control) (Tau (AT100); 100 nM): 154* % of control
Area of Tau (AT100)/neurons (% of control) (Tau (AT100); 500 nM): 152* % of control
Area of Tau (AT100)/neurons (% of control) (Tau (AT100); 1 μM): 198 % of control

COc1cc2c(cc1OC)C(=O)C(CC1CCN(Cc3ccccc3)CC1)C2 (stereo not shown) [Donepezil, reference compound]
MAP-2 neurite network (% of control) ([1]; 1 μM): 92* % of control
MAP-2 neurons (% of control) ([1]; 1 μM): 82* % of control
Neurite network/MAP-2 neurons (% of control) ([1]; 1 μM): 113* % of control
Area of Tau (AT100)/neurons (% of control) (Tau (AT100); 1 μM): 151* % of control

COc1cc(N)c(F)cc1C(=O)CCC1CCN(CC2CCCCC2)CC1 [Flucopride]
neuroprotective effect (survival, neurite and synaptic network) [1, 2]: strong neuroprotective effect
concentration of maximum effect on survival and neurite network ([1]; Aβ1-42 injured hippocampal neurons, bell shaped curve (FIGS. 1A-C)): 100 nM
concentration of maximal effect on Tau hyperphosphorylation (Tau (AT100)): 50 nM

COc1cc(N)c(F)cc1C(=O)CCC1CCN(CC2CCCC2)CC1 [MR33583]
active concentrations (neuroprotective effect) ([1]; Aβ1-42 injured hippocampal neurons (FIGS. 7 and 8)): 50 to 500 nM
effect on neurite network [1, 2]: strong effect on neurite network was observed at almost every tested dose
neuroprotective effect (survival, neurite and synaptic network) [1, 2]: neuroprotective effect following a bell shaped curved
concentration of maximal effect on Tau hyperphosphorylation (Tau (AT100)): 50 to 100 nM

COc1cc(N)c(F)cc1C(=O)CCC1CCN(CC2CCCCCC2)CC1 [MR36014]
neuroprotective effect (survival, neurite network, Tau hyperphosphorylation) ([1]; pM doses, Aβ1-42 injured hippocampal neurons, Example 5 (FIG. 11)): neuroprotective effect was also observed at pM doses

Reference: US20220031680A1, “Donecopride As Neuroprotective Agent In the Treatment of Neurodegenerative Diseases” (priority 2018, published 2022)
